Reference: patent US9693997B2, “Antiviral compounds” (priority 2013, dated 2017)

How the values were obtained:
Assay in all cases: microbe, parasite or virus in culture
[1] = test system: Pseudotyped HCV GT1a particles (HCVpp), entry into Huh7-high CD81 cells; assay type: cell-based, HCV GT1a H77 strain; conditions: Hepatitis C virus, 72 h, read-out: HCVpp GT-1a (EC50, μM)
[2] = test system: Pseudotyped HCV GT1b particles (HCVpp), entry into Huh7-high CD81 cells; assay type: cell-based, HCV GT1b Con1 strain; conditions: Hepatitis C virus, GT1B, 72 h, read-out: HCVpp GT-1b (EC50, μM)
[3] = test system: pseudotyped VSV G particles (VSVpp) in Huh7-high CD81 cells; assay type: cell-based, vesicular stomatitis virus; conditions: Vesicular stomatitis virus, 72 h, read-out: VSVpp (EC50, μM)

Structure (SMILES)	EC50 [1] [µM]	EC50 [2] [µM]	EC50 [3] [µM]
COc1cc(-c2c(Cl)cc(Nc3n[nH]c(N)n3)cc2C(F)(F)F)ccc1S(=O)(=O)NC(C)(C)C [Compound 179, 4′-(5-amino-1H-1,2,4-triazol-3-ylamino)-N-tert-butyl-2′-chloro-3-methoxy-6′-(trifluoromethyl)biphenyl-4-sulfonamide]	0.002	0.02	8.55
Nc1nc(Nc2cc(Cl)c(-c3ccc(S(=O)(=O)N[C@H]4CC[C@H](O)CC4)cc3)c(C(F)(F)F)c2)n[nH]1 [Compound 184, 4′-(5-amino-1H-1,2,4-triazol-3-ylamino)-2′-chloro-N-(trans-4-hydroxycyclohexyl)-6′-(trifluoromethyl)biphenyl-4-sulfonamide]	0.028	0.05	> 10
CN(C)S(=O)(=O)c1ccc(-c2c(Cl)cc(Nc3n[nH]c(N)n3)cc2C(F)(F)F)cc1 [Compound 185, 4′-(5-amino-1H-1,2,4-triazol-3-ylamino)-2′-chloro-N,N-dimethyl-6′-(trifluoromethyl)biphenyl-4-sulfonamide]	0.015	0.052	11.7
CS(=O)(=O)NCc1ccc(-c2c(Cl)cc(Nc3n[nH]c(N)n3)cc2C(F)(F)F)cc1 [Compound 186, N-((4′-(5-amino-1H-1,2,4-triazol-3-ylamino)-2′-chloro-6′-(trifluoromethyl)biphenyl-4-yl)methyl)methanesulfonamide]	0.011	0.038	19.7
CS(=O)(=O)c1ccc(-c2c(Cl)cc(Nc3n[nH]c(N)n3)cc2C(F)(F)F)cc1 [Compound 187, N3-(2-chloro-4′-(methylsulfonyl)-6-(trifluoromethyl)biphenyl-4-yl)-1H-1,2,4-triazole-3,5-diamine]	0.016	0.046	1.58
COc1ccc(-c2c(Cl)cc(Nc3n[nH]c(N)n3)cc2C(F)(F)F)cc1S(=O)(=O)NC(C)(C)CO [Compound 218, 4′-(5-Amino-1H-[1,2,4]triazol-3-ylamino)-6′-chloro-4-methoxy-2′-trifluoromethyl-biphenyl-3-sulfonic acid (2-hydroxy-1,1-dimethyl-ethyl)-amide]	0.003	0.005	20.3
Nc1nc(Nc2cc(Cl)c(-c3ccc(NC(=O)CN4CCS(=O)(=O)CC4)cc3)c(C(F)(F)F)c2)n[nH]1 [Compound 240]	0.011	0.171	> 10
CS(=O)(=O)Nc1ccc(-c2c(F)cc(Nc3nc(N)n[nH]3)cc2C(F)(F)F)cc1 [Compound 242, N-[4′-(5-Amino-2H-[1,2,4]-triazol-3-ylamino)-6′-fluoro-2′-trifluoromethyl-biphenyl-4-yl]-methanesulfonamide]	0.061	0.113	> 10
Nc1nc(Nc2cc(Cl)c(-c3ccc4c(c3)CC(=O)N4)c(Cl)c2)n[nH]1 [Compound 254]	0.003	0.051	12.9
Nc1nc(Nc2cc(Cl)c(-c3ccc(OC[C@@H]4CCCN4)cc3)c(Cl)c2)n[nH]1 [Compound 265, N*3*-[2,6-Dichloro-4′-((S)-1-pyrrolidin-2-ylmethoxy)-biphenyl-4-yl]-1H-[1,2,4]triazole-3,5-diamine]	0.005	0.063	17.9
Nc1nc(Nc2cc(Cl)c(-c3ccc(F)cc3)c(Cl)c2)n[nH]1 [Compound 286, N3-(2,6-dichloro-4′-fluorobiphenyl-4-yl)-1H-1,2,4-triazole-3,5-diamine]	0.018	0.64	13.6
Nc1nc(Nc2cc(Cl)c(-c3ccccc3F)c(Cl)c2)n[nH]1 [Compound 287, N3-(2,6-dichloro-2′-fluorobiphenyl-4-yl)-1H-1,2,4-triazole-3,5-diamine]	0.005	0.366	13
Nc1nc(Nc2cc(Cl)c(-c3ccc(N4CCCS4(=O)=O)cc3)c(Cl)c2)n[nH]1 [Compound 289, N-3-[2,6-Dichloro-4′-(1,1-dioxo-1,6-isothiazolidin-2-yl)-biphenyl-4-yl]-1H-[1,2,4]triazole-3,5-diamine]	0.002	0.046	17.8
